According to patent US7960384B2, “Dipeptidyl peptidase inhibitors” (Takeda Pharmaceutical Company Limited, priority 2006, dated 2011):

Target: Human DPP-IV (Homo sapiens, UniProt P27487)
Assay: DPP-IV Assay (protease inhibition, AP-AFC substrate)
Type: biochemical
Description: Solutions of test compounds in varying concentrations (≦10 mM final concentration) were prepared in Dimethyl Sulfoxide (DMSO) and then diluted into assay buffer comprising: 20 mM Tris, pH 7.4; 20 mM KCl; and 0.1 mg/mL BSA. Human DPP-IV (0.1 nM final concentration) was added to the dilutions and pre-incubated for 10 minutes at ambient temperature before the reaction was initiated with A-P-7-amido-4-trifluoromethylcoumarin (AP-AFC; 10 μM final concentration). The total volume of the reaction mixture was 10-100 μL depending on assay formats used (384 or 96 well plates). The reaction was followed kinetically (excitation λ=400 nm; emission λ=505 nm) for 5-10 minutes or an end-point was measured after 10 minutes. Inhibition constants (IC50) were calculated from the enzyme progress curves using standard mathematical models.

Sequence of Human DPP-IV (P27487 whole entry): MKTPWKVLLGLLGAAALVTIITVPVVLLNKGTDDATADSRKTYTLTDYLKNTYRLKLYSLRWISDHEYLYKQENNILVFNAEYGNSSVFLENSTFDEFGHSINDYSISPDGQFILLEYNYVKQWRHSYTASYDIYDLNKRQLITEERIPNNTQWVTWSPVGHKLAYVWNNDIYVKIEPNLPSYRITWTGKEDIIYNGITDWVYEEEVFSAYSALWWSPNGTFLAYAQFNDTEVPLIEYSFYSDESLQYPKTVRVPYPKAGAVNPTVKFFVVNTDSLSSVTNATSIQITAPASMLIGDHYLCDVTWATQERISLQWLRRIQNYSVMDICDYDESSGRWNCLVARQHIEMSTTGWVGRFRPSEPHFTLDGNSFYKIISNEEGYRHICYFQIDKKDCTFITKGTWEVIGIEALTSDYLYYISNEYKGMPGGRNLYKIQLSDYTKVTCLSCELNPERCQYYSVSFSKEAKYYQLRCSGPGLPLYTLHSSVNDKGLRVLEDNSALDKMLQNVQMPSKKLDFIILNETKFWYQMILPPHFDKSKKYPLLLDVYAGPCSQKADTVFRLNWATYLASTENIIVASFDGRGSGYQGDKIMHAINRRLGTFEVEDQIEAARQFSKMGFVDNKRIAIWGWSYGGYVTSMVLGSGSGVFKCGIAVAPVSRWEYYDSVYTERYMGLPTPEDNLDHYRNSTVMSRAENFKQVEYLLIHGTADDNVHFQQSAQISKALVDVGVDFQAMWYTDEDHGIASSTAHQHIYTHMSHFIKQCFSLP

IC50 (DPP-IV inhibition, Human DPP-IV 0.1 nM, AP-AFC 10 μM): < 50 µM | selectivity in protease inhibition assays (tested in DPP-IV, FAPα, PREP and Tryptase assays): selective DPP-IV inhibitory activity
Compound: COc1ccccc1-c1ccc2[nH]c(=O)c(=O)[nH]c2c1CN [Example 1, 5-Aminomethyl-6-(2-methoxy-phenyl)-1,4-dihydro-quinoxaline-2,3-dione]
